Experimental data as given in publication PMC9175088 (Drug Metabolism Letters, 2021).

How the values were obtained:
[1] = Metabolism of enflicoxib and E-6132 in cryopreserved hepatocytes; conditions: male, Wistar, rat
[2] = as above
[3] = enantiomers of enflicoxib; cited from earlier work
[4] = Secondary phase I metabolism in liver microsomes, unlabeled substrates; format: in vitro ADME; conditions: rat liver microsomes, positive control 10 µM; experiments with M8 as substrate
[5] = Enflicoxib metabolism in intestinal microsomes
[6] = Enflicoxib metabolism in intestinal microsomes; remark: listed apart in the source
[7] = dog hepatocytes, positive control 10 µM

## Cc1cc(=O)oc2cc(O)ccc12 [7-hydroxy-4-methylcoumarin]
[1]
  half-life at 10 µM: < 5.9 min
[2]; [7]
  K: -0.0658
[2]; male, beagle, dog, cryopreserved hepatocytes
  half-life at 10 µM: 10.5 min

## NS(=O)(=O)c1ccc(N2N=C(C(F)(F)F)C[C@@H]2c2ccc(F)cc2F)cc1 [Metabolite E-6231, (R)-(+)-enflicoxib]
[3]
  Pharmacological activity of enantiomer: negligible

## NS(=O)(=O)c1ccc(N2N=C(C(F)(F)F)C[C@H]2c2ccc(F)cc2F)cc1 [Metabolite E-6232, (S)-(-)-enflicoxib]
[3]
  Pharmacological activity of enantiomer: active enantiomer

## C[C@]12CC[C@H]3[C@@H](CCC4=CC(=O)CC[C@@]43C)[C@@H]1CC[C@@H]2O [Testosterone, testosterone]
[4]
  K: -0.3314
[5]; male, Sprague-Dawley, rat, intestinal microsomes, pH 7.4
  half-life at 10 µM: 133 min
[5]; rat intestinal microsomes, positive control 10 µM
  K: -0.0052
[6]; dog intestinal microsomes, positive control 10 µM
  K: -0.0195
[6]; male, beagle, dog, intestinal microsomes, pH 7.4
  half-life at 10 µM: 35.5 min
[2]; [7]
  K: -0.0914
  t1/2: 7.6 min
